# Measured values published in paper PMC10577883, “Design and Optimization of Novel Competitive, Non-peptidic, SARS-CoV-2 M^pro Inhibitors” (ACS Medicinal Chemistry Letters, 2023).
# “And” between values parts separate entries of the source, which are not always exact repeats. Identical values can stand only once. Like-named read-outs stand apart in the source and are kept apart here.
# Legend:
# [1] = test system: SARS-CoV-2-Nluc reporter virus; test: microbe, parasite or virus in culture; type: cell-based; details: for EC50: Severe acute respiratory syndrome coronavirus 2, VeroE6/TMPRSS2 cells, parentheses denote 95% confidence intervals
# in vitro [2] = details: chlorocebus sabaeus
# [3] = Rat liver microsome stability assay; details: 37 °C; for remaining at 5 min, 3 µM / remaining at 10 min, 3 µM / remaining at 0.25 h, 3 µM / half-life at 3 µM: Sprague-Dawley, rat, microsomes; for remaining at 5 min, 3 µM / remaining at 10 min, 3 µM / remaining at 0.25 h, 3 µM: RLM Rel % remaining; for half-life at 3 µM: RLM t1/2, 3 μM, unit inferred
# Method: Metabolic Stability Assay
# (§3) Liver Microsome Stability Assay Protocol
# (§4) Human liver microsomes (HLMs, 20 mg/mL), CD-1 mouse liver microsomes (MLMs, 20 mg/mL), Sprague Dawley
# (§5) rat liver microsomes (RLMs, 20 mg/mL) were purchased from Xenotech. NADPH was purchased from Sigma-
# (§6) Aldrich and prepared in 10 mM stock solutions of distilled H2O (InvitrogenTM UltraPureTM). Verapamil and
# (§7) diphenhydramine were both purchased from Sigma-Aldrich and served as positive controls for LM stability assays.
# (§8) Test compounds and positive controls were initially dissolved in DMSO to make 10 mM stock solutions. Sample
# (§9) solutions were then further diluted in 100% MeCN to 500 μM. Next, the reactions were prepared by mixing human
# (§10) or mouse liver microsomes (55 μL) with potassium phosphate buffer (100 mM, 928 μL) in 1.5 mL Eppendorf tubes.
# (§11) The test compounds (6.6 μL of 500 μM solution) were subsequently added to the suspensions, and the reaction
# (§12) mixtures were incubated at 37 °C for 5 min. Afterward, the liver microsome reactions were initiated with 110 μL
# (§13) of 10 mM NADPH and further incubated at 37 °C for the designated time course of the study. This procedure
# (§14) provided experiments with a final volume of 1100 μL (0.6% organic solvent content) and a final test compound
# (§15) concentration of 3 μM. Aliquots (100 μL) were removed from each reaction mixture in duplicate at 0, 5, 10, 15,
# (§16) and 30 min time intervals and quenched with 100 μL of cold internal standard solution (ISTD, 2 μM
# (§17) 7-ethoxy-d 5-coumarin in MeOH or MeCN). Quenched aliquots were then centrifuged at 12,500 g for 5-10 min, and
# (§18) the resulting supernatants were withdrawn and placed in LC-MS vials to be analyzed by LC-MS/MS (Agilent
# (§19) G6460C QQQ MS coupled with an Infinity II 1260 HPLC). Each test compound was run in tandem with positive and
# (§20) negative control experiments for quality assurance. Positive control reactions were conducted at a final volume
# (§21) of 550 μL for a single run of each time point. Lastly, the negative control experiment was conducted with test
# (§22) compounds and liver microsomes in the absence of NADPH (150 μL) and analyzed at the 30 min time point.
# (§23) Data Analysis. Each data point was analyzed in triplicate using in-between blank washes to avoid carry over and
# (§24) to equilibrate the column for the subsequent runs. Averages of these triplicates for individual compounds at each
# (§25) time point were then normalized to the data at 0 min, representing 100% test compound remaining or 0%
# (§26) metabolism. Half-lives (t 1/2) were calculated by plotting ln of % test compound remaining versus time and
# (§27) performing linear regression to determine slope.
# (§28) Instrumentation and LC-MS/MS Method Development
# (§29) LC-MS/MS analyses were conducted on an Agilent 1260 Infinity II HPLC equipped with an Agilent G6460 triple
# (§30) quadrupole mass spectrometer (Agilent Technologies, USA). Reverse-phase HPLC separation for each compound
# (§31) m) column maintained at 40 °C. The mobile phase used during analyses consisted of either MeOH-H2O (0.1% FA)
# (§32) or MeCN-H2O (0.1% FA) at a flow rate of 0.5 mL/min. Each method was developed in the presence of the internal
# (§33) standard (ISTD), 7-ethoxy-d 5-coumarin. Precursor and product ion detection was performed with Agilent Jet
# (§34) Stream electrospray positive ionization (ESI+) in multiple reaction monitoring (MRM) mode. All MRM transitions,
# (§35) MS conditions were as follows: dwell time of 100 ms; gas flow of 10 L/min; nebulizer pressure of 45 psi; delta EMV
# (§36) of 200 V. Lastly, all acquired data was processed using Agilent 6460 Quantitative Analysis software.
# SARS-CoV-2 Mpro (3CLpro) = SARS-CoV-2 Mpro (3CLpro) (Severe acute respiratory syndrome coronavirus 2, UniProt P0DTD1); test: SARS-CoV-2 recombinant protease enzymatic assay (FRET); type: biochemical; details: for IC50: recombinant Mpro, FRET peptide substrate
# [4] = Liver microsome metabolite identification (LC-HRMS); type: in vitro ADME
# Method: Figure S15: Stability of 45 in rat liver microsomes (RLM) at 37 °C
# Table S17: Stability of 43 in rat liver microsomes (RLM) at 37 °C
# Time Response ratio Average RR Rel % ln
# Metabolite identification
# Procedure for Liver Microsome Metabolite Identification Assay: Test compounds and positive controls were dissolved in 100% DMSO to make 10 mM stock solutions. The 10 mM stock solutions of test and control […]
# (1 picture or pasted object on this page, not shown here) […]
# compounds were further diluted in potassium phosphate buffer (100 mM, pH 7.4) to 500 μM to ensure that the organic solvent content was < 0.2%. The liver microsome (HLM or MLM) assay was prepared in a 1.5 mL Eppendorf tube with a final volume of […] for duplicate runs. Each reaction contained phosphate buffer (374 μL), liver microsomes (550 μL), and test compound (66 μL of 500 resulting in a final concentration of 30 μM), μM for the […]
# test compound. […] Aliquots (100 μL) were removed in […]
# (§1) MS analysis was performed using full scan from a mass range of 100-700 m/z at 60k resolution with data dependent MS/MS and MSn programs enabled for the top 5 ions detected for each scan. Compounds are detected based on their MS1 precursor ion accurate mass m/z and identified with matching theoretical and observed accurate mass MS1 ions with interpretation of accurate mass MS/MS spectra from expected […]
# [5] = Mouse liver microsome stability assay; details: for MLM percentage remaining after 30 min: 3 μM, 37 °C; for half-life at 3 µM / remaining at 5 min, 3 µM / remaining at 10 min, 3 µM / remaining at 0.25 h, 3 µM: CD-1, mouse, microsomes
# Method: Metabolic Stability Assay
# as §3, §4, §5, §6, §7, §8, §9, §10, §11, §12, §13, §14, §15, §16, §17, §18, §19, §20, §21, §22, §23, §24, §25, §26, §27, §28, §29, §30, §31, §32, §33, §34, §35, §36
# [6] = Human liver microsome stability assay; details: for HLM percentage remaining after 30 min: 3 μM, 37 °C; for half-life at 3 µM / remaining at 5 min, 3 µM / remaining at 10 min, 3 µM / remaining at 0.25 h, 3 µM: human, microsomes
# Method: Metabolic Stability Assay
# as §3, §4, §5, §6, §7, §8, §9, §10, §11, §12, §13, §14, §15, §16, §17, §18, §19, §20, §21, §22, §23, §24, §25, §26, §27, §28, §29, §30, §31, §32, §33, §34, §35, §36
# SARS-CoV-2 Mpro = details: cited from earlier work; for IC50: literature value
# in vitro [7] = details: human, microsomes
# Method: Metabolic Stability Assay
# as §3, §4, §5, §6, §7, §8, §9, §10, §11, §12, §13, §14, §15, §16, §17, §18, §19, §20, §21, §22, §23, §24, §25, §26, §27, §28, §29, §30, §31, §32, §33, §34, §35, §36
# in vitro [8] = details: Sprague-Dawley, rat, microsomes
# Method: Metabolic Stability Assay
# as §3, §4, §5, §6, §7, §8, §9, §10, §11, §12, §13, §14, §15, §16, §17, §18, §19, §20, §21, §22, §23, §24, §25, §26, §27, §28, §29, §30, §31, §32, §33, §34, §35, §36
# in vitro [9] = details: CD-1, mouse, microsomes
# Method: Metabolic Stability Assay
# as §3, §4, §5, §6, §7, §8, §9, §10, §11, §12, §13, §14, §15, §16, §17, §18, §19, §20, §21, §22, §23, §24, §25, §26, §27, §28, §29, §30, §31, §32, §33, §34, §35, §36
# CYP3A = test system: CYP3A; design: method as in PMID 37171749; details: cited from earlier work
# [10] = Pharmacokinetics after single IV and PO administration; type: in vivo, Male Sprague Dawley rats; details: male, Sprague-Dawley, rat, plasma
# Method: (§2) To this end, 36 was studied in male Sprague–Dawley rats following a single intravenous dose at 0.25 mg/kg and an oral dose at 0.5 mg/kg (SI, Table S18).
# Figure S16: Metabolite identification study of Compound 43 in liver microsomes using liquid chromatography coupled to high resolution mass spectrometry (LC-HRMS). The identification of metabolite Compound 43 M1 […]
# as §1
# Table S18: Pharmacokinetic data of Compound 36 in Male Sprague Dawley rats following a single intravenous and oral administration (Dose: 0.25 mg/kg, IV and 0.5 mg/kg, PO)
# Dose Tmax aC0/Cmax T1/2 CL Vss
# Matrix Route AUClast AUCinf (mL/min %F […]
# a – Back extrapolated concentration in IV group.
# Figure S17: Plasma concentrations-time profiles (mean ± SD) of Compound 36 in Male Sprague Dawley rats following a single intravenous and oral administration (Dose: 0.25 mg/kg, IV and 0.5 mg/kg, PO) […]
# (1 picture or pasted object on this page, not shown here)
# [11] = Oral dose escalation pharmacokinetics (10 and 100 mg/kg PO); type: in vivo, rat; details: for AUC(0-inf) / Cmax / Tlast / Tmax / half-life / concentration at 24 h: rat plasma, mean ± SD, n = 3; for concentration at 24 h: read-out: Clast
# Method: as §2
# Table S19. Summary of Pharmacokinetic Parameters (nmol/mL) for Compound 36 in Rat Plasma after a Single Oral
# Dose of 36 at 10 mg/kg or 100 mg/kg
# Dose Tmax Cmax Tlast Clast AUCinf t1/2
# (mg/kg) (h) (nmol/mL) (h) (nmol/mL) (h*nmol/mL) (h)
# Results are shown as averages and standard deviations (n = 3).
# Figure S18. Average Concentrations (nmol/mL) of Compound 36 in Rat Plasma after a Single Oral Dose of 36 at 10
# Left panel: Linear Scale, Right panel: Log Scale. Results are shown as averages and standard deviations (n = 3). […]
smiles,measurement,setting,value
O=c1[nH]cccc1-c1cn(-c2cc(Cl)cc(OCc3ccccc3Cl)c2)c(=O)n(-c2cccnc2)c1=O [Compound 43],EC50 range in words,[1],sub-micromolar
same,EC50,[1],130 nM
same,CC50,in vitro [2],> 100000 nM
same,RLM percentage remaining after 30 min,[3]; 3 μM,26.6% and 26.55% and 30.88%
same,RLM t1/2,"[3]; 3 μM, unit not given",19.8 min
same,RLM Rel % remaining,[3]; 5 min,80.16%
same,RLM Rel % remaining,[3]; 10 min,63.43%
same,RLM Rel % remaining,[3]; 15 min,57.78%
same,"remaining at 5 min, 3 µM",[3]; 5 min,71.1%
same,"remaining at 10 min, 3 µM",[3]; 10 min,55.3%
same,"remaining at 0.25 h, 3 µM",[3]; 15 min,43.5%
same,half-life at 3 µM,[3],16.1 min
same,IC50 range in words,SARS-CoV-2 Mpro (3CLpro),single-digit nanomolar range
same,IC50,SARS-CoV-2 Mpro (3CLpro),8.6 nM
same,major microsomal metabolite / metabolic route,"[4]; liver microsomes, LC-HRMS",ether cleavage
same,MLM percentage remaining after 30 min,[5],4.0% and 3.96%
same,half-life at 3 µM,[5],3 min
same,"remaining at 5 min, 3 µM",[5],22.8%
same,"remaining at 10 min, 3 µM",[5],10.4%
same,"remaining at 0.25 h, 3 µM",[5],7.53%
same,HLM percentage remaining after 30 min,[6],48% and 47.72%
same,half-life at 3 µM,[6],27.8 min
same,"remaining at 5 min, 3 µM",[6],91.6%
same,"remaining at 10 min, 3 µM",[6],76.9%
same,"remaining at 0.25 h, 3 µM",[6],70.7%
"N#Cc1ccccc1-c1cc(-c2ccccn2)cn(-c2ccccc2)c1=O [Perampanel, perampanel]",IC50,SARS-CoV-2 Mpro,100000 to 200000 nM
Cn1cc(-c2cc(-c3cc(Cl)c(F)c(OCc4ccccc4Cl)c3)c(=O)n(-c3cccnc3)c2)c(=O)[nH]c1=O [Compound 4],"remaining at 5 min, 3 µM",in vitro [7],46.1%
same,"remaining at 10 min, 3 µM",in vitro [7],22.7%
same,"remaining at 0.25 h, 3 µM",in vitro [7],16.3%
same,half-life at 3 µM,in vitro [7]; HLM t1/2,7.2 min
same,half-life at 3 µM,in vitro [8],4.8 min
same,"remaining at 5 min, 3 µM",in vitro [8],63.6%
same,"remaining at 10 min, 3 µM",in vitro [8],26.6%
same,"remaining at 0.25 h, 3 µM",in vitro [8],17.4%
same,half-life at 3 µM,in vitro [9],2.4 min
same,"remaining at 5 min, 3 µM",in vitro [9],9.41%
same,"remaining at 10 min, 3 µM",in vitro [9],5.25%
same,"remaining at 0.25 h, 3 µM",in vitro [9],2.96%
same,major microsomal metabolite / metabolic route,[4],loss of the ortho-chlorobenzyl moiety
N#Cc1ccccc1-c1cc(-c2cccc(Cl)c2)c(=O)n(-c2cccnc2)c1 [Compound 2],IC50,SARS-CoV-2 Mpro,9990 nM
same,improvement in potency over 1,SARS-CoV-2 Mpro; relative to perampanel 1,10 fold
"Cn1cnc(Cn2c(=O)[nH]/c(=N\c3cc4cn(C)nc4cc3Cl)n(Cc3cc(F)c(F)cc3F)c2=O)n1 [Compound S-217622, ensitrelvir, reference compound]",EC50,[1],230 nM
same,CYP3A inhibition,CYP3A,strong CYP3A inhibitor
O=c1[nH]cccc1-c1cn(-c2cc(Cl)cc(OCCC(F)(F)F)c2)c(=O)n(-c2cccnc2)c1=O [Compound 36],EC50,[1],1350 nM
same,CC50,in vitro [2],> 100000 nM
same,bioavailability,"[10]; PO 0.5 mg/kg vs IV 0.25 mg/kg, read-out: %F (oral bioavailability)",40.6% and 41%
same,AUC(0-inf),[10]; IV 0.25 mg/kg,1680 ng·h/mL
same,AUC(0-t),[10]; IV 0.25 mg/kg,1610 ng·h/mL
same,clearance,[10]; IV 0.25 mg/kg,2.49 mL/min/kg
same,half-life,[10]; IV 0.25 mg/kg,103 min
same,C0,"[10]; IV 0.25 mg/kg, read-out: C0 (back extrapolated concentration)",1330 ng/mL
same,Vd,"[10]; IV 0.25 mg/kg, read-out: Vss",0.33 L/kg
same,AUC(0-inf),[10]; PO 0.5 mg/kg,1690 ng·h/mL
same,AUC(0-t),[10]; PO 0.5 mg/kg,1310 ng·h/mL
same,Cmax,[10]; PO 0.5 mg/kg,285 ng/mL
same,Tmax,[10]; PO 0.5 mg/kg,100 min
same,RLM percentage remaining after 30 min,[3]; 3 μM,86.4% and 86.41%
same,"remaining at 5 min, 3 µM",[3]; 5 min,95.4%
same,"remaining at 10 min, 3 µM",[3]; 10 min,90.9%
same,"remaining at 0.25 h, 3 µM",[3]; 15 min,88.8%
same,half-life at 3 µM,[3],> 30 min
same,IC50,SARS-CoV-2 Mpro (3CLpro),55 nM
same,increase in AUC on 10-fold increase in dose,[11]; 10 mg/kg vs 100 mg/kg PO,2 fold
same,AUC(0-inf),[11]; PO 10 mg/kg,23.2 ± 2.18 µM·h
same,Cmax,[11]; PO 10 mg/kg,2610 ± 476 nM
same,Tlast,[11]; PO 10 mg/kg,24.0 ± 0.00 h
same,Tmax,[11]; PO 10 mg/kg,100 ± 34.6 min
same,half-life,[11]; PO 10 mg/kg,161 ± 18.6 min
same,concentration at 24 h,[11]; PO 10 mg/kg,12.6 ± 6.27 nM
same,AUC(0-inf),[11]; PO 100 mg/kg,49.9 ± 4.53 µM·h
same,Cmax,[11]; PO 100 mg/kg,4130 ± 161 nM
same,Tlast,[11]; PO 100 mg/kg,24.0 ± 0.00 h
same,Tmax,[11]; PO 100 mg/kg,140 ± 91.8 min
same,half-life,[11]; PO 100 mg/kg,224 ± 64.8 min
same,concentration at 24 h,[11]; PO 100 mg/kg,114 ± 105 nM
same,MLM percentage remaining after 30 min,[5],73.3% and 73.26%
same,half-life at 3 µM,[5],> 30 min
same,"remaining at 5 min, 3 µM",[5],93.9%
same,"remaining at 10 min, 3 µM",[5],90.1%
same,"remaining at 0.25 h, 3 µM",[5],83.8%
same,HLM percentage remaining after 30 min,[6],91.7% and 91.71%
same,half-life at 3 µM,[6],> 30 min
same,"remaining at 5 min, 3 µM",[6],98.2%
same,"remaining at 10 min, 3 µM",[6],97.7%
same,"remaining at 0.25 h, 3 µM",[6],98.2%
